Laboratory results taken from patent US20220040136A1, “TREATMENT OF VULVOVAGINAL DISORDERS” (University of Rochester, priority 2018, published 2022).

Test system: C57BL/6J mice
Experiment: Mouse model of LPV, DHA cream (Example 4)
Format: in vivo
Text: A total of 36 C57BL/6J mice were subjected to 6 weeks of allodynia induction using the protocol described above. Briefly, zymosan was used to induce sustained vulvar allodynia, measured by pain threshold testing. An electronic vonFrey system (MOUSEMET™, Topcat Metrology) was used to apply gradually increasing force to the vulva at the injection site, located at the midline posterior vulvar (between the vaginal opening and anus) (FIG. 7A). The hair was applied perpendicular to the vulvar surface with a gradually increasing force within a range of 0.100 g to 7.0 g (FIG. 7B). A positive response was defined as either (1) a reflexive, coordinated four extremity extension, (2) jump, or (3) immediate grooming of the vulva in response to vulvar stimulus, at which point the peak force was recorded.
During allodynia induction, mice receive weekly injections of zymosan (10 mg/ml in 10 μl saline) for a maximum of 6 injections, until a >33% reduction in pain threshold is observed for 2 consecutive weeks of testing (FIG. 7C). Pain threshold testing was performed at the same time every week, immediately prior to zymosan injection; after the first 2 weeks of injections, a determination of threshold change was performed after pain testing to determine which mice would receive additional zymosan injections. […]

CC/C=C\C/C=C\C/C=C\C/C=C\C/C=C\C/C=C\CCC(=O)O [DHA, docosahexaenoic acid]
mice recovered from allodynia (DHA cream group (12 mice), after 6 weeks of treatment, recovery = 70% improvement over lowest pain threshold for 2 consecutive tests): 9 mice
first week at which mice began to recover (DHA group, week = first week of a two-week period with 70% improvement, FIG. 13): 1 week
